{
  "source": "patent US7534742B2",
  "about": "“Isoprenoid biosynthesis” (priority 1999, dated 2009)",
  "biological_target": "T1, YgbP (Escherichia coli, UniProt Q46893)",
  "T1 construct": "made in house; host or cells: E. coli XL1-Blue, plasmid pNCOygbP (vector pNCO113)",
  "T1 sequence (Q46893 2-236)": "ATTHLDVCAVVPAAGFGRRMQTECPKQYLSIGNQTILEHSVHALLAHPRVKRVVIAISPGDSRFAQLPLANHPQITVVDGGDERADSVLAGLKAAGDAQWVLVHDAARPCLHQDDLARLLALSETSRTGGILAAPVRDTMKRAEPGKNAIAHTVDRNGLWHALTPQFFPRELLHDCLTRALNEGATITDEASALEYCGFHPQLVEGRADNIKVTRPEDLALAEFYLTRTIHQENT",
  "assay": "Screening of 4-diphosphocytidyl-2C-methyl-D-erythritol synthase by spectrophotometric method (coupled pyrophosphate/NADP+ assay, 340 nm)",
  "type": "biochemical, E. coli",
  "details": "37° C.",
  "procedure": "Recombinant 4-diphosphocytidyl-2C-methyl-D-erythritol synthase is tested by a spectrophotometric assay at 340 nm, in which the inorganic pyrophosphate formed from 2-C-methyl-D-erythritol 4-phosphate and CTP is used in a cascade of downstream reactions leading to the reduction of NADP^+. Reactions mixtures contained 50 mM Tris hydrochloride pH 8.0, 200 μM 2C-methyl-D-erythritol 4-phosphate, 200 μM CTP, 5 mM MgCl2, 1 mM DTT, 1 μM glucose 1,6-biphosphate, 500 μM UDP-Glucose, 174 μM NADP^+, 0.125 U of UDP-glucose pyrophosphorylase, 0.16 U of phosphoglucomutase, and 1 U of glucose 6-phosphate deydrogenase, various concentrations of D-erythritol 4-phosphate respectively D-ribitol 5-phosphate as shown in Table 4 and 10 μl of enzyme in a total volume of 1 ml. One unit of enzyme activity is defined as the amount of enzyme catalyzing the conversion of 1 μmol of substrate per min at 37° C.",
  "key": {"[1]": {"details": "test compound concentration 0.2 mM"}, "[2]": {"details": "test compound concentration 1.6 mM"}, "[3]": {"details": "test compound concentration 0.4 mM"}, "[4]": {"details": "test compound concentration 0.8 mM"}, "[5]": {"details": "test compound concentration 3.2 mM"}},
  "data": [
    {"smiles": "O=P(O)(O)OC[C@@H](O)[C@@H](O)[C@@H](O)CO", "note": "[D-ribitol 5-phosphate]", "values": [
      {"measurement": "specific activity", "setting": "[1]", "result": 16.5, "unit": "µmol/min/mg"},
      {"measurement": "specific activity (% of activity at 0 mM test compound)", "setting": "[1]", "result": 102, "unit": "%"},
      {"measurement": "specific activity", "setting": "[2]", "result": 16.9, "unit": "µmol/min/mg"},
      {"measurement": "specific activity (% of activity at 0 mM test compound)", "setting": "[2]", "result": 105, "unit": "%"}
    ]},
    {"smiles": "O=P(O)(O)OC[C@@H](O)[C@@H](O)CO", "note": "[D-erythritol 4-phosphate]", "values": [
      {"measurement": "specific activity", "setting": "[1]", "result": 15.9, "unit": "µmol/min/mg"},
      {"measurement": "specific activity (% of activity at 0 mM test compound)", "setting": "[1]", "result": 92, "unit": "%"},
      {"measurement": "specific activity", "setting": "[3]", "result": 15.9, "unit": "µmol/min/mg"},
      {"measurement": "specific activity (% of activity at 0 mM test compound)", "setting": "[3]", "result": 92, "unit": "%"},
      {"measurement": "specific activity", "setting": "[4]", "result": 12.9, "unit": "µmol/min/mg"},
      {"measurement": "specific activity (% of activity at 0 mM test compound)", "setting": "[4]", "result": 75, "unit": "%"},
      {"measurement": "specific activity", "setting": "[2]", "result": 5.9, "unit": "µmol/min/mg"},
      {"measurement": "specific activity (% of activity at 0 mM test compound)", "setting": "[2]", "result": 34, "unit": "%"},
      {"measurement": "specific activity", "setting": "[5]", "result": "0 (0%) μmol min^−1 mg^−1"},
      {"measurement": "specific activity (% of activity at 0 mM test compound)", "setting": "[5]", "result": "0 (0%)"}
    ]}
  ]
}
